Data: US9802899B2, “Heterocyclic compounds as pesticides” (BAYER CROPSCIENCE AG, priority 2012, dated 2017)

assay: Determination of the log P values by HPLC (formic acid method); format: physicochemical; conditions: reversed-phase HPLC column (C 18), reversed-phase column (C 18), acidic range (pH 3.4), 55° C.
Method: 1) Description of Method for Determination of the Log P Values (Formic Acid Method)
Eluents for determination in the acidic range (pH 3.4):
Eluent A: acetonitrile+1 ml of formic acid/liter. Eluent B: water+0.9 ml of formic acid/liter.
The lambda max values were determined in the maxima of the chromatographic signals using the UV spectra from 200 nm to 400 nm.

In order of falling chromatographic logP:
1. N#Cc1c(C(F)(F)F)cc(C2CC2)nc1-n1ccc(NC(=O)c2ccccc2C(F)(F)F)n1 [Compound I-1-570, N-{1-[3-Cyano-6-cyclopropyl-4-(trifluoromethyl)pyridin-2-yl]-1H-pyrazol-3-yl}-2-(trifluoromethyl)benzamide]  3.99
2. CCCc1ccc(C#N)c(-n2ccc(NC(=O)c3ccccc3C(F)(F)F)n2)n1 [Compound I-1-573, N-[1-(3-Cyano-6-propylpyridin-2-yl)-1H-pyrazol-3-yl]-2-(trifluoromethyl)benzamide]  3.8
3. CCN(CC)c1ccc(C#N)c(-n2ccc(NC(=O)c3ccccc3C(F)(F)F)n2)n1 [Compound I-1-568, N-{1-[3-Cyano-6-(diethylamino)pyridin-2-yl]-1H-pyrazol-3-yl}-2-(trifluoromethyl)benzamide]  3.76
4. Cc1cc(C(F)(F)F)c(C#N)c(-n2ccc(NC(=O)c3ccccc3C(F)(F)F)n2)n1 [Compound I-1-571, N-{1-[3-Cyano-6-methyl-4-(trifluoromethyl)pyridin-2-yl]-1H-pyrazol-3-yl}-2-(trifluoromethyl)benzamide]  3.49
5. N#Cc1ccc(C(F)(F)F)nc1-n1ccc(NC(=O)c2ccccc2C(F)(F)F)n1 [Compound I-1-569, N-{1-[3-Cyano-6-(trifluoromethyl)pyridin-2-yl]-1H-pyrazol-3-yl}-2-(trifluoromethyl)benzamide]  3.41
6. O=C(Nc1ccn(-c2nccc(I)c2F)n1)c1ccccc1C(F)(F)F [Compound I-1-576, N-[1-(3-Fluoro-4-iodopyridin-2-yl)-1H-pyrazol-3-yl]-2-(trifluoromethyl)benzamide]  2.96

same assay, conditions: reversed-phase column (C 18), acidic range (pH 3.4), 55° C.

In order of falling “log P” value:
1. Cn1nc(C(C)(C)C)c(Cl)c1C(=O)Nc1ccn(-c2ncc(F)cc2F)n1 [Compound I-1-513]  3.89
2. CCCc1nn(C)c(C(=O)Nc2ccn(-c3ncc(F)cc3F)n2)c1Cl [Compound I-1-531]  3.42
3. O=C(Nc1ccn(-c2ncc(C(F)(F)F)cc2Cl)n1)c1ccccc1C(F)(F)F [Compound I-1-560]  3.41
4. O=C(Nc1ccn(-c2cccc(Cl)c2F)n1)c1ccccc1Br [Compound I-1-557]  3.31
5. O=C(Nc1ccn(-c2cccc(Cl)c2F)n1)c1ccccc1Cl [Compound I-1-559]  3.30
6. O=C(Nc1ccn(-c2ncc(C(F)(F)F)cc2Cl)n1)c1ccccc1Cl [Compound I-1-561]  3.30
7. CC(C)Cn1ncc(I)c1C(=O)Nc1ccn(-c2ncc(F)cc2F)n1 [Compound I-1-539]  3.28
8. Cn1nc(C(F)(F)F)c(Br)c1C(=O)Nc1ccn(-c2ncc(F)cc2F)n1 [Compound I-1-522]  3.19
9. Cn1nc(C(F)(F)C(F)(F)F)c(C#N)c1C(=O)Nc1ccn(-c2ncc(F)cc2F)n1 [Compound I-1-535]  3.19
10. Cc1oc(C)c(C(=O)Nc2ccn(-c3ncc(F)cc3F)n2)c1Br [Compound I-1-523]  3.18
11. Cc1cc(C)c(C#N)c(-n2ccc(NC(=O)c3ccccc3C(F)(F)F)n2)n1 [Compound I-1-567]  3.15
12. O=C(Nc1ccn(-c2cccc(Cl)c2F)n1)c1c(F)cccc1F [Compound I-1-556]  3.12
13. Cn1nc(C(C)(C)C)c([N+](=O)[O-])c1C(=O)Nc1ccn(-c2ncc(F)cc2F)n1 [Compound I-1-512]  3.11
14. CC(C)n1nc([N+](=O)[O-])c(Cl)c1C(=O)Nc1ccn(-c2ncc(F)cc2F)n1 [Compound I-1-528]  3.11
15. CCCc1c(Cl)c(C(=O)Nc2ccn(-c3ncc(F)cc3F)n2)nn1C [Compound I-1-532]  3.09
16. CC(C)Cc1nn(C)c(C(=O)Nc2ccn(-c3ncc(F)cc3F)n2)c1[N+](=O)[O-] [Compound I-1-508]  3.02
17. O=C(Nc1ccn(-c2ncc(F)cc2F)n1)c1c(C(F)(F)F)cc(F)c(F)c1F [Compound I-1-516]  2.98
18. CCc1nn(C)c(C(=O)Nc2ccn(-c3ncc(F)cc3F)n2)c1Cl [Compound I-1-534]  2.98
19. CCn1nc(C)c(Br)c1C(=O)Nc1ccn(-c2ncc(F)cc2F)n1 [Compound I-1-519]  2.93
20. CCn1nc(C)c(Cl)c1C(=O)Nc1ccn(-c2ncc(F)cc2F)n1 [Compound I-1-527]  2.93
21. CCCn1ncc(I)c1C(=O)Nc1ccn(-c2ncc(F)cc2F)n1 [Compound I-1-541]  2.93
22. Cc1ccc(C#N)c(-n2ccc(NC(=O)c3ccccc3C(F)(F)F)n2)n1 [Compound I-1-572]  2.92
23. CCCn1cc(Cl)c(C(=O)Nc2ccn(-c3ncc(F)cc3F)n2)n1 [Compound I-1-533]  2.85
24. Cc1nn(C(F)F)c(C(=O)Nc2ccn(-c3ncc(F)cc3F)n2)c1Cl [Compound I-1-525]  2.84
25. Cn1nc(C(F)(F)F)c(C#N)c1C(=O)Nc1ccn(-c2ncc(F)cc2F)n1 [Compound I-1-536]  2.76
26. CC(C)c1nn(C)c(C(=O)Nc2ccn(-c3ncc(F)cc3F)n2)c1[N+](=O)[O-] [Compound I-1-509]  2.72
27. O=C(Nc1ccn(-c2ncc(F)cc2F)n1)c1sccc1I [Compound I-1-507]  2.69
28. O=C(Nc1ccn(-c2ncc(F)cc2F)n1)c1cc(F)ccc1C(F)(F)F [Compound I-1-506]  2.65
29. O=C(Nc1ccn(-c2cccc(Cl)c2F)n1)c1cccnc1Br [Compound I-1-558]  2.64
30. O=C(Nc1ccn(-c2ncc(F)cc2F)n1)c1sccc1Cl [Compound I-1-503]  2.61
31. Cc1noc(C(F)(F)F)c1C(=O)Nc1ccn(-c2ncc(F)cc2F)n1 [Compound I-1-511]  2.61
32. CCn1ncc(Br)c1C(=O)Nc1ccn(-c2ncc(F)cc2F)n1 [Compound I-1-518]  2.61
33. Cc1nn(C)c(C(=O)Nc2ccn(-c3ncc(F)cc3F)n2)c1Br [Compound I-1-517]  2.53
34. Cn1nc([N+](=O)[O-])c(Cl)c1C(=O)Nc1ccn(-c2ncc(F)cc2F)n1 [Compound I-1-530]  2.50
35. O=C(Nc1ccn(-c2ncccc2Cl)n1)c1ccsc1I [Compound I-1-566]  2.46
36. O=C(Nc1ccn(-c2ncc(F)cc2F)n1)c1snnc1C1CC1 [Compound I-1-537]  2.45
37. CCn1ncc(Cl)c1C(=O)Nc1ccn(-c2ncc(F)cc2F)n1 [Compound I-1-526]  2.42
38. O=C(Nc1ccn(-c2ncccc2Br)n1)c1ccccc1C(F)(F)F [Compound I-1-549]  2.42
39. O=C(Nc1ccn(-c2ncccc2Br)n1)c1ccccc1I [Compound I-1-554]  2.42
40. O=C(Nc1ccn(-c2ncc(F)cc2F)n1)c1ncccc1C(F)(F)F [Compound I-1-502]  2.38
41. Cc1ccsc1C(=O)Nc1ccn(-c2ncc(F)cc2F)n1 [Compound I-1-510]  2.38
42. O=C(Nc1ccn(-c2ncccc2Br)n1)c1cccnc1C(F)(F)F [Compound I-1-550]  2.34
43. O=C(Nc1ccn(-c2ncccc2F)n1)c1cccnc1OC(F)(F)F [Compound I-1-577]  2.33
44. O=C(Nc1ccn(-c2ncccc2Br)n1)c1ccccc1Br [Compound I-1-552]  2.31
45. O=C(Nc1ccn(-c2ncc(F)cc2F)n1)c1cscc1Br [Compound I-1-524]  2.30
46. Cn1ncc(Br)c1C(=O)Nc1ccn(-c2ncc(F)cc2F)n1 [Compound I-1-521]  2.23
47. Cn1ncc(Cl)c1C(=O)Nc1ccn(-c2ncc(F)cc2F)n1 [Compound I-1-529]  2.23
48. O=C(Nc1ccn(-c2ncccc2Br)n1)c1ccccc1Cl [Compound I-1-553]  2.23
49. Cc1nonc1C(=O)Nc1ccn(-c2ncc(F)cc2F)n1 [Compound I-1-542]  2.22
50. O=C(Nc1ccn(-c2ncc(F)cc2F)n1)c1nccnc1C(F)(F)F [Compound I-1-501]  2.20
51. Cn1ncc(I)c1C(=O)Nc1ccn(-c2ncc(F)cc2F)n1 [Compound I-1-540]  2.20
52. O=C(Nc1ccn(-c2ncc(F)cc2F)n1)c1ncccc1Cl [Compound I-1-504]  2.16
53. Cn1cc(Br)c(C(=O)Nc2ccn(-c3ncc(F)cc3F)n2)n1 [Compound I-1-520]  2.15
54. Cc1snnc1C(=O)Nc1ccn(-c2ncc(F)cc2F)n1 [Compound I-1-546]  2.15
55. Cc1nn(C)c(C(=O)Nc2ccn(-c3ncc(F)cc3F)n2)c1C(F)F [Compound I-1-514]  2.13
56. O=C(Nc1ccn(-c2ncccc2Br)n1)c1c(F)cccc1F [Compound I-1-551]  2.13
57. O=C(Nc1ccn(-c2ncccc2Cl)n1)c1c(F)cccc1F [Compound I-1-564]  2.12
58. CC1=C(C(=O)Nc2ccn(-c3ncc(F)cc3F)n2)CCCO1 [Compound I-1-548]  2.10
59. Cn1ncc(F)c1C(=O)Nc1ccn(-c2ncc(F)cc2F)n1 [Compound I-1-538]  2.03
60. O=C(Nc1ccn(-c2ncc(F)cc2F)n1)c1cnccc1C(F)(F)F [Compound I-1-515]  2.00
61. Cc1cnoc1C(=O)Nc1ccn(-c2ncc(F)cc2F)n1 [Compound I-1-543]  2.00
62. O=C(Nc1ccn(-c2ncc(F)cc2F)n1)c1ncncc1Cl [Compound I-1-545]  1.92
63. O=C(Nc1ccn(-c2ncccc2Cl)n1)c1cccnc1Br [Compound I-1-565]  1.68
64. O=C(Nc1ccn(-c2ncccc2F)n1)c1cccnc1Br [Compound I-1-578]  1.57
65. O=C(Nc1ccn(-c2ncccc2F)n1)c1cccnc1Cl [Compound I-1-579]  1.53
66. CCc1nnccc1C(=O)Nc1ccn(-c2ncc(F)cc2F)n1 [Compound I-1-505]  1.50
67. Cc1oncc1C(=O)Nc1ccn(-c2ncc(F)cc2F)n1 [Compound I-1-547]  1.37
68. Cn1cnnc1C(=O)Nc1ccn(-c2ncc(F)cc2F)n1 [Compound I-1-544]  1.29
